{"source": "patent US20110117168A1", "about": "“METHODS AND COMPOSITIONS FOR SOFT TISSUE REPAIR” (AFFINERGY, INC., priority 2009, published 2011)", "key": {"human ASCs": {"test_system": "human ASCs", "assay": "Biotinylated peptide cell binding specificity by flow cytometry (Neutravidin-PE)", "type": "cell-based", "conditions": "25 μM peptide solution, 30 min at 4° C.", "excerpt": "(§1) The synthetic biotinylated cell binding peptide SEQ ID NO: 4 was examined for its ability to specifically bind MSCs compared to a number of other cells types including adipose-derived mesenchymal stem cells (ASCs), dermal fibroblasts, rodent MSCs, red blood cells, monocytes, lymphocytes and granulocytes. The cell binding peptide was biotinylated as described herein at Example 2. Cultured cells of each type were either purchased (ASCs and dermal fibroblasts) or isolated from rodent bone marrow (rodent MSCs) or human blood. Cells were first harvested and resuspended at 10^6/mL in PBS+2% fetal bovine serum (FBS). An aliquot of cells (50 μL) was incubated in 50 μL of peptide solution (25 μM in PBS+FBS) for 30 min at 4° C. Cells were then washed twice in PBS+FBS with 300×g centrifugation for 5 min between washes. Fluorescently-tagged neutravidin (Neutravidin-PE from INVITROGEN) was then added to the cells to label biotinylated peptide bound to cells. Neutravidin-PE was diluted 1:250 from stock and applied at 50 μL to cells. Cells were then washed in PBS+FBS, and acquired on a BD […]. Peptide reactivity was then measured as percent positivity relative to Neutravidin-PE staining without the addition of biotinylated peptide."}, "human MSCs": {"test_system": "human MSCs", "assay": "Biotinylated peptide cell binding specificity by flow cytometry (Neutravidin-PE)", "type": "cell-based", "conditions": "25 μM peptide solution, 30 min at 4° C.", "excerpt": "as §1"}, "dermal fibroblasts": {"test_system": "dermal fibroblasts", "assay": "Biotinylated peptide cell binding specificity by flow cytometry (Neutravidin-PE)", "type": "cell-based, human", "conditions": "25 μM peptide solution, 30 min at 4° C.", "excerpt": "as §1"}, "ECFCs": {"test_system": "ECFCs", "assay": "Biotinylated peptide binding to endothelial and other cells by flow cytometry", "type": "cell-based, human", "conditions": "biotinylated peptide 10 μM, 30 min at 4° C.", "protocol": "(§2) The synthetic biotinylated binding peptide SEQ ID NO: 4 was further examined for its ability to bind endothelial cells compared to other cell types (see FIG. 16). […] ECFCs are clonally expanded cells isolated from human umbilical cord blood, and are considered highly proliferative endothelial progenitor cells (EPCs) based on their clonogenic and proliferative potential. In another experiment, binding peptide SEQ ID NO: 4 was assayed for its ability to selectively isolate endothelial cells versus smooth muscle cells in the presence of whole blood. HUVECs or UASMCs were incubated in the presence of medium containing 20% whole blood and binding peptide SEQ ID NO: 4-conjugated magnetic beads (via biotin-SA) for 30 min. The solutions containing the bead-peptide-cell complexes were then passed through a […] LS column in a magnetic field. The column was washed, and the remaining peptide-bound cells were then released from the magnetic field and counted."}, "HUVECs [1]": {"test_system": "HUVECs", "assay": "Biotinylated peptide binding to endothelial and other cells by flow cytometry", "type": "cell-based, human", "conditions": "biotinylated peptide 10 μM, 30 min at 4° C.", "protocol": "as §2"}, "peripheral blood cells": {"test_system": "peripheral blood cells", "assay": "Biotinylated peptide binding to endothelial and other cells by flow cytometry", "type": "cell-based, human", "conditions": "biotinylated peptide 10 μM, 30 min at 4° C.", "protocol": "as §2"}, "MSCs": {"test_system": "MSCs", "assay": "Immunoreactivity of cells captured from bone marrow aspirate", "type": "cell-based, human", "conditions": "CD29, CD44, CD73, CD105, CD166, CD90, CD45, CD34", "protocol": "This experiment was performed to examine the ability of cell binding peptide SEQ ID NO: 4 to capture MSCs directly from bone marrow aspirate in comparison to two separate antibodies against the CD105 I antigen (CD105) and the MSCA-1 stem cell antigen (MSCA-1). This experiment employed biotinylated peptides with streptavidin-coated […] magnetic beads. The peptides were biotinylated as described herein at Example 2. […] For the antibody capture experiment, magnetic beads having covalently attached CD105 or MSCA-1 antibody were employed ([…]). Prior to incubation with the peptides and antibodies, bone marrow aspirate (BMA) was mixed with 5 volumes of 10 mM ammonium chloride for 1-2 min at room temperature to lyse red blood cells. The lysate was centrifuged for 5 min at 300×g and the supernatant discarded. The cell pellet was washed with wash buffer (PBS+0.5% bovine serum albumin+0.5 mM EDTA) and cells were resuspended in […] peptide at a concentration of 10^8 per mL. For peptide binding studies, the cell suspension was incubated with the biotinylated peptides for 30 min at 4° C. to allow for binding. After incubation, cells were spun down at 300×g for 5 min, and peptide solution was aspirated. Cells were then rinsed twice with wash buffer, with centrifugation between washes. […] Colony forming units (CFUs) were counted after 14 days in culture. […]"}, "HUVECs [2]": {"test_system": "HUVECs", "assay": "Endothelial cell phenotype and anti-thrombogenic protein expression on peptide-modified collagen", "type": "cell-based, human", "conditions": "HUVECs cultured 24 hours; t-PA and 6-keto Prostaglandin F1a ELISA, flow cytometry", "protocol": "Once immobilized on a vascular graft, endothelial cells must retain their characteristic properties of promoting endothelialization. Therefore, the phenotype, viability, and anti-thrombogenic protein expression profiles were evaluated for endothelial cells in the presence of collagen modified with the endothelial cell binding peptide SEQ ID NO: 4 (generated according to Example 7 using BS^3 reagent). […] Specifically, HUVECs were plated on SEQ ID NO: 4 peptide-modified collagen, collagen with 10 μM free SEQ ID NO: 4 peptide or collagen alone for 24 hours. Flow cytometry was performed using a BD […], and ELISAs were performed according to manufacturers instructions. (FIGS. 22A & 22B). Tissue-type Plasminogen Activator (t-PA) and 6-keto Prostaglandin F1a protein expression levels secreted in this assay are aligned with other reports on cultured HUVECS (Kimura and Yokoi-Hayashi, Biochim Biophys Acta, 1996, 1310:1-4; Merhi-Soussi et al., J Leukoc Biol, 2000, 68:881-9)."}}, "note": "Ends that are not written are not given here.", "data": [{"sequence": "SSFWDVCQGDGTCYGGGSR (SSFWDVCQGDGTCYGGGSRGSSG-{K(biotin)}; cysteine pairing not given here) [SEQ ID NO: 4, tested biotinylated with GSSGK(biotin) or other spacer at the C-terminus]", "values": [{"measurement": "binding to human ASCs (percent positivity relative to Neutravidin-PE staining)", "setting": "human ASCs", "result": "high binding"}, {"measurement": "binding to human MSCs (percent positivity relative to Neutravidin-PE staining)", "setting": "human MSCs", "result": "high binding"}, {"measurement": "binding to dermal fibroblasts (percent positivity relative to Neutravidin-PE staining)", "setting": "dermal fibroblasts", "result": "high binding"}, {"measurement": "cross-reactivity with ECFCs", "setting": "ECFCs", "result": "strongly"}, {"measurement": "cross-reactivity with HUVECs", "setting": "HUVECs [1]", "result": "strongly"}, {"measurement": "cross-reactivity with peripheral blood cells", "setting": "peripheral blood cells", "result": "no cross-reactivity"}, {"measurement": "immunoreactivity of isolated cells compared with CD105 isolated cells", "setting": "MSCs", "result": "no changes were observed"}, {"measurement": "endothelial cell phenotype and anti-thrombogenic protein secretion", "setting": "HUVECs [2]", "result": "maintained their endothelial cell phenotype and their ability to secrete anti-thrombogenic proteins"}]}]}
